Laboratory results published in patent publication US20210051954A1, “METHOD FOR INCREASING THE RESISTANCE OF A CEREAL PLANT” (BASF AGROCHEMICAL PRODUCTS B.V., priority 2018, published 2021).

Key:
Maize (Corn) = experiment: % germination in maize (corn) by drench treatment, 21 days after planting; format: in vivo; details: 30% FS formulation; for % Germination in Mineral soil in Standard conditions: standard watered conditions (moisture above 80%); for % Germination in Organic soil in Draught conditions: drought conditions (re-watering at 45% pot moisture)
Description: (§1) Watering cycles—The level of stress is created by watering the pots based on the % of pot moisture as measured by wireless probes. Depending on weather conditions the number of cycles vary as needed.
(§2) The % of moisture triggers the watering process independent of the time that it takes to reach this point.
(§3) In “well-watered conditions” or “standard watered conditions”, in pots the % moisture is kept above 80%.
(§4) In “drought conditions”, in the pots re-watering happens at 45% pot moisture.
(§5) “Untreated” means that the seed has not been exposed to the compound I (a).
(§6) The treaments(s) were applied directly over the planted seed at the rates found in the table(s) below. Seeds were then covered and the % rate of germination was calculated at 21 days after planting.
(§7) The % rate of germination was calculated as the number of seeds that emerged divided by the number of seeds planted and presented as as a percentage.
(§8) Seeds were planted in two types of soil (Mineral and Organic) which were free of pest (insects, weeds, or diseases) to avoid interactions with the treatments applied
Example 1: Increase in % of Germination in Maize (Corn) by Drench Treatment

Wheat = experiment: % germination in wheat by seed treatment, 21 days after planting; format: in vivo; details: 0.5 mg of (la)/plant, 30% FS formulation
Description: as §1, §2, §3, §4, §5, §6, §7, §8
Example 2: Increase % Germination in Wheat by Seed Treatement

CN(C(=O)c1ccccc1)c1cccc(C(=O)Nc2c(Br)cc(C(F)(C(F)(F)F)C(F)(F)F)cc2C(F)(F)F)c1F [(la)]
% Germination in Mineral soil in Standard conditions (Maize (Corn); 0.5 mg of (la)/plant): 100% | % Germination in Organic soil in Draught conditions (Maize (Corn); 0.5 mg of (la)/plant): 98% | % Germination in Mineral soil in Standard conditions (Maize (Corn); 1 mg of (la)/plant): 100% | % Germination in Organic soil in Draught conditions (Maize (Corn); 1 mg of (la)/plant): 100% | % Germination in Mineral soil in Standard conditions (Wheat; mineral soil, standard watered conditions (moisture above 80%)): 95% | % Germination in Organic soil in Draught conditions (Wheat; organic soil, drought conditions (re-watering at 45% pot moisture)): 95% | % Germination in Organic soil in Standard conditions (Wheat; organic soil, standard watered conditions (moisture above 80%)): 100%
